Source: the NIST ThermoML archive (doi:10.1021/je1003065)

Experiment: mn = molality of the nth substance listed, in mol/kg
Details: Liquid, Vibrating tube method

[Br-].[Li+] [lithium bromide] + CCO
Details | mass density [kg/m3]
298.15 K, 60024 kPa, m1 = 0.9499 | 885.07
298.15 K, 69784 kPa, m1 = 0.2335 | 847.83
298.15 K, 69784 kPa, m1 = 0.9499 | 890.31
298.15 K, 69931 kPa, m1 = 0.5972 | 869.87
298.15 K, 69993 kPa, m1 = 1.462 | 920.05
298.15 K, 79215 kPa, m1 = 0.9499 | 895.14
298.15 K, 79970 kPa, m1 = 2.272 | 969.11
298.15 K, 80014 kPa, m1 = 2.833 | 998.77
298.15 K, 80151 kPa, m1 = 0.5972 | 875.11
298.15 K, 89921 kPa, m1 = 0.2335 | 857.88
298.15 K, 89926 kPa, m1 = 0.9499 | 900.43
298.15 K, 89927 kPa, m1 = 2.833 | 1003.47
298.15 K, 89963 kPa, m1 = 0.5972 | 879.79
298.15 K, 99468 kPa, m1 = 0.2335 | 862.11
298.15 K, 99739 kPa, m1 = 1.462 | 933.99
298.15 K, 99874 kPa, m1 = 0.5972 | 884.17
298.15 K, 99968 kPa, m1 = 2.833 | 1008.08
298.15 K, 99975 kPa, m1 = 0.9499 | 905.24
298.16 K, 1341 kPa, m1 = 1.462 | 876.32
298.16 K, 9986 kPa, m1 = 2.833 | 958.39
298.16 K, 20192 kPa, m1 = 0.5972 | 838.95
298.16 K, 39784 kPa, m1 = 0.2335 | 830.01
298.16 K, 49924 kPa, m1 = 2.833 | 983.25
298.16 K, 89994 kPa, m1 = 1.462 | 929.76
298.17 K, 9947 kPa, m1 = 1.462 | 882.69
298.17 K, 59942 kPa, m1 = 0.2335 | 842.36
298.17 K, 69994 kPa, m1 = 3.368 | 1020.58
298.17 K, 80053 kPa, m1 = 1.462 | 925.1
298.18 K, 2703 kPa, m1 = 3.368 | 980.82
298.18 K, 5041 kPa, m1 = 3.368 | 982.47
298.18 K, 5165 kPa, m1 = 2.272 | 925.09
298.18 K, 9642 kPa, m1 = 2.272 | 928.25
298.18 K, 9735 kPa, m1 = 3.368 | 985.72
298.18 K, 9947 kPa, m1 = 0.5972 | 831.46
298.18 K, 19511 kPa, m1 = 3.368 | 992.17
298.18 K, 29936 kPa, m1 = 3.368 | 998.66
298.18 K, 40157 kPa, m1 = 3.368 | 1004.65
298.18 K, 49943 kPa, m1 = 3.368 | 1010.11
298.19 K, 2166 kPa, m1 = 2.272 | 922.88
298.19 K, 20358 kPa, m1 = 1.462 | 890.05
298.2 K, 20184 kPa, m1 = 2.272 | 935.31
298.2 K, 59916 kPa, m1 = 3.368 | 1015.42
313.09 K, 4759 kPa, m1 = 0.5972 | 815.39
313.11 K, 1319 kPa, m1 = 2.272 | 910.08
313.11 K, 2109 kPa, m1 = 1.462 | 864.85
313.11 K, 4863 kPa, m1 = 2.272 | 912.94
313.11 K, 9792 kPa, m1 = 0.5972 | 819.49
313.13 K, 5147 kPa, m1 = 1.462 | 867.25
313.13 K, 19554 kPa, m1 = 0.5972 | 827.15
313.14 K, 5102 kPa, m1 = 2.833 | 943.28
313.14 K, 9982 kPa, m1 = 2.272 | 916.81
313.14 K, 19956 kPa, m1 = 0.2335 | 804.92
313.14 K, 20135 kPa, m1 = 2.272 | 924.35
313.14 K, 29993 kPa, m1 = 2.272 | 931.18
313.14 K, 40450 kPa, m1 = 2.272 | 937.95
313.14 K, 50014 kPa, m1 = 0.2335 | 826.45
313.14 K, 59926 kPa, m1 = 2.833 | 978.99
313.15 K, 1021 kPa, m1 = 2.833 | 940.06
313.15 K, 1045 kPa, m1 = 0.9499 | 833.87
313.15 K, 2012 kPa, m1 = 0.2335 | 789.9
313.15 K, 5003 kPa, m1 = 0.9499 | 837.08
313.15 K, 5028 kPa, m1 = 0.2335 | 792.77
313.15 K, 9909 kPa, m1 = 1.462 | 870.96
313.15 K, 9978 kPa, m1 = 2.833 | 947
313.15 K, 9985 kPa, m1 = 0.9499 | 841.04
313.15 K, 19924 kPa, m1 = 0.9499 | 848.66
313.15 K, 19994 kPa, m1 = 1.462 | 878.53
313.15 K, 29451 kPa, m1 = 2.833 | 960.7
313.15 K, 29924 kPa, m1 = 0.2335 | 812.49
313.15 K, 29935 kPa, m1 = 0.9499 | 855.96
313.15 K, 29958 kPa, m1 = 0.5972 | 834.89
313.15 K, 29979 kPa, m1 = 1.462 | 885.66
313.15 K, 39844 kPa, m1 = 0.5972 | 841.83
313.15 K, 40021 kPa, m1 = 0.9499 | 862.92
313.15 K, 49925 kPa, m1 = 1.462 | 898.82
313.15 K, 49925 kPa, m1 = 2.272 | 943.67
313.15 K, 49963 kPa, m1 = 0.5972 | 848.54
313.15 K, 49968 kPa, m1 = 2.833 | 973.38
313.15 K, 50035 kPa, m1 = 0.9499 | 869.45
313.15 K, 59623 kPa, m1 = 1.462 | 904.69
313.15 K, 59831 kPa, m1 = 0.5972 | 854.67
313.15 K, 60002 kPa, m1 = 0.2335 | 832.74
313.15 K, 60047 kPa, m1 = 0.9499 | 875.6
313.15 K, 69784 kPa, m1 = 0.9499 | 881.21
313.15 K, 69784 kPa, m1 = 2.833 | 984.26
313.15 K, 69928 kPa, m1 = 1.462 | 910.56
313.15 K, 69997 kPa, m1 = 0.5972 | 860.59
313.15 K, 79828 kPa, m1 = 0.5972 | 865.9
313.15 K, 79877 kPa, m1 = 1.462 | 915.87
313.15 K, 79935 kPa, m1 = 0.9499 | 886.68
313.15 K, 80042 kPa, m1 = 0.2335 | 844.05
313.15 K, 89924 kPa, m1 = 0.2335 | 848.99
313.15 K, 89925 kPa, m1 = 2.833 | 994.32
313.15 K, 89926 kPa, m1 = 1.462 | 920.86
313.15 K, 89986 kPa, m1 = 0.9499 | 891.71
313.15 K, 89993 kPa, m1 = 0.5972 | 870.99
313.15 K, 99841 kPa, m1 = 0.5972 | 875.52
313.15 K, 99954 kPa, m1 = 0.9499 | 896.31
313.15 K, 99985 kPa, m1 = 0.2335 | 853.58
313.15 K, 99985 kPa, m1 = 2.833 | 999.09
313.16 K, 10023 kPa, m1 = 0.2335 | 796.94
313.16 K, 19926 kPa, m1 = 2.833 | 954.23
313.16 K, 39715 kPa, m1 = 1.462 | 892.26
313.16 K, 40032 kPa, m1 = 0.2335 | 819.73
313.16 K, 59995 kPa, m1 = 2.272 | 949.4
